# Experimental data taken from PubChem BioAssay (NCI).
#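 Compound exposure: 48 hours, 5 concentrations, 96-well plates. TGI: concentration producing complete growth inhibition.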
# Key:
# Experiment in all cases: NCI anticancer screen, dose series, 48 h
# [1] = system: HT29 colon
# [2] = system: SW-620 colon
# [3] = system: TK-10 renal
# [4] = system: MDA-N
# [5] = system: NCI-H522 lung
# [6] = system: A549 NSCLC
# [7] = system: A498 renal
# [8] = system: HCC-2998 colon
# [9] = system: SNB-19 CNS
# [10] = system: NCI-H23 lung
# [11] = system: SNB-75 CNS
# [12] = system: MDA-MB-435
# [13] = system: UACC-257 melanoma
# [14] = system: HS 578T breast
# [15] = system: LOX IMVI melanoma
# [16] = system: MOLT-4 leukemia
# [17] = system: COLO 205 colon
# [18] = system: UO-31 renal
# [19] = system: HCT-15 colon
# [20] = system: CCRF-CEM leukemia
# [21] = system: ACHN renal
# [22] = system: PC-3 prostate
# [23] = system: SF-539 CNS
# [24] = system: NCI-H460 lung
# [25] = system: IGROV1 ovarian
# [26] = system: UACC-62 melanoma
# [27] = system: BT-549 breast
# [28] = system: NCI/ADR-RES ovarian
# [29] = system: DU-145 prostate
# [30] = system: MCF7 breast
# [31] = system: U251 CNS
# [32] = system: HL-60(TB) leukemia
# [33] = system: NCI-H226 lung
# [34] = system: SN12C renal
# [35] = system: SK-MEL-28 melanoma
# [36] = system: T-47D breast
# [37] = system: 786-0 renal
# [38] = system: RXF 393 renal
# [39] = system: HCT-116 colon
# [40] = system: K-562 leukemia
# [41] = system: RPMI-8226 leukemia
# [42] = system: OVCAR-8 ovarian
# [43] = system: SR leukemia
# [44] = system: OVCAR-4 ovarian
# [45] = system: MDA-MB-231 breast
# [46] = system: M14 melanoma
# [47] = system: EKVX NSCLC
# [48] = system: SF-268 CNS
# [49] = system: KM12 colon
# [50] = system: HOP-92 NSCLC
# [51] = system: MALME-3M melanoma
# [52] = system: SK-MEL-2 melanoma
# [53] = system: CAKI-1 renal
# [54] = system: OVCAR-5 ovarian
# [55] = system: SK-MEL-5 melanoma
# [56] = system: HOP-62 NSCLC
# [57] = system: OVCAR-3 ovarian
# [58] = system: SK-OV-3 ovarian
# [59] = system: SF-295 CNS
smiles,measurement,setting,value
CCc1c(Cc2cccc3ccccc23)n2c(nc1=O)SCC2OCCO (stereo not drawn),TGI,[1],> 100 µM
same,TGI,[2],> 100 µM
same,TGI,[3],> 100 µM
same,TGI,[4],> 100 µM
same,TGI,[5],> 100 µM
same,TGI,[6],> 100 µM
same,TGI,[7],> 100 µM
same,TGI,[8],> 100 µM
same,TGI,[9],> 100 µM
same,TGI,[10],> 100 µM
same,TGI,[11],> 100 µM
same,TGI,[12],38.4 µM
same,TGI,[13],> 100 µM
same,TGI,[14],> 100 µM
same,TGI,[15],> 100 µM
same,TGI,[16],> 100 µM
same,TGI,[17],> 100 µM
same,TGI,[18],> 100 µM
same,TGI,[19],> 100 µM
same,TGI,[20],74 µM
same,TGI,[21],> 100 µM
same,TGI,[22],> 100 µM
same,TGI,[23],> 100 µM
same,TGI,[24],> 100 µM
same,TGI,[25],> 100 µM
same,TGI,[26],> 100 µM
same,TGI,[27],> 100 µM
same,TGI,[28],> 100 µM
same,TGI,[29],> 100 µM
same,TGI,[30],> 100 µM
same,TGI,[31],> 100 µM
same,TGI,[32],> 100 µM
same,TGI,[33],> 100 µM
same,TGI,[34],> 100 µM
same,TGI,[35],> 100 µM
same,TGI,[36],> 100 µM
same,TGI,[37],> 100 µM
same,TGI,[38],> 100 µM
same,TGI,[39],> 100 µM
same,TGI,[40],> 100 µM
same,TGI,[41],94.4 µM
same,TGI,[42],> 100 µM
same,TGI,[43],89.4 µM
same,TGI,[44],> 100 µM
same,TGI,[45],> 100 µM
same,TGI,[46],> 100 µM
same,TGI,[47],> 100 µM
same,TGI,[48],> 100 µM
same,TGI,[49],> 100 µM
same,TGI,[50],34.7 µM
same,TGI,[51],> 100 µM
same,TGI,[52],> 100 µM
same,TGI,[53],> 100 µM
same,TGI,[54],> 100 µM
same,TGI,[55],> 100 µM
COC(=O)[C@H]1[C@@H](C(C)C)O[C@@H](C(C)C)O[C@H]1C(F)(F)F,TGI,[1],> 100 µM
same,TGI,[2],> 100 µM
same,TGI,[3],> 100 µM
same,TGI,[4],> 100 µM
same,TGI,[5],> 100 µM
same,TGI,[6],> 100 µM
same,TGI,[7],> 100 µM
same,TGI,[8],> 100 µM
same,TGI,[9],> 100 µM
same,TGI,[56],> 100 µM
same,TGI,[10],> 100 µM
same,TGI,[57],> 100 µM
same,TGI,[11],> 100 µM
same,TGI,[12],> 100 µM
same,TGI,[13],> 100 µM
same,TGI,[14],> 100 µM
same,TGI,[58],> 100 µM
same,TGI,[15],> 100 µM
same,TGI,[16],> 100 µM
same,TGI,[17],> 100 µM
same,TGI,[18],> 100 µM
same,TGI,[19],> 100 µM
same,TGI,[20],> 100 µM
same,TGI,[21],> 100 µM
same,TGI,[22],> 100 µM
same,TGI,[23],> 100 µM
same,TGI,[24],> 100 µM
same,TGI,[25],> 100 µM
same,TGI,[26],> 100 µM
same,TGI,[27],> 100 µM
same,TGI,[28],> 100 µM
same,TGI,[29],> 100 µM
same,TGI,[30],> 100 µM
same,TGI,[31],> 100 µM
same,TGI,[32],> 100 µM
same,TGI,[33],> 100 µM
same,TGI,[34],> 100 µM
same,TGI,[35],> 100 µM
same,TGI,[36],> 100 µM
same,TGI,[37],> 100 µM
same,TGI,[38],> 100 µM
same,TGI,[39],> 100 µM
same,TGI,[40],> 100 µM
same,TGI,[41],> 100 µM
same,TGI,[42],> 100 µM
same,TGI,[43],> 100 µM
same,TGI,[44],> 100 µM
same,TGI,[45],> 100 µM
same,TGI,[46],> 100 µM
same,TGI,[47],> 100 µM
same,TGI,[48],> 100 µM
same,TGI,[49],> 100 µM
same,TGI,[50],> 100 µM
same,TGI,[51],> 100 µM
same,TGI,[53],> 100 µM
same,TGI,[59],> 100 µM
same,TGI,[54],> 100 µM
same,TGI,[55],> 100 µM
